According to paper PMC11005723, “Development of Complementary Photo‐arginine/lysine to Promote Discovery of Arg/Lys hPTMs Interactomes” (Advanced Science, 2024):

Test system: HEK293T nuclear lysates
Assay: SILAC‐based pull‐down proteomics H4K5me2/H4K5 (probes 7/5)
Assay type: binding, human
Settings: for E6 log2 (H4K5me2/H4K5): run E6; for F6 log2 (H4K5me2/H4K5): run F6

probe 7: H4K5me2 peptide probe with photo‐arginine R(dz) and K(biotin) (SGRGKGGKGLGKGGK; photo-arginine R(dz) at 3; dimethyl-lysine at 5; K(biotin) at 15)
proteins recruited (SILAC proteomics H4K5me2/H4K5) (365 nm UV 30 min, streptavidin enrichment, n = 2): could recruit L3MBTL2 | E6 log2 (H4K5me2/H4K5) (protein A0A0U1RR22 PACSIN2): 0.1208 | F6 log2 (H4K5me2/H4K5) (protein A0A0U1RR22 PACSIN2): -0.1109 | E6 log2 (H4K5me2/H4K5) (protein A0A2R8Y855 SMARCE1): 0.07695 | F6 log2 (H4K5me2/H4K5) (protein A0A2R8Y855 SMARCE1): 0.03141 | E6 log2 (H4K5me2/H4K5) (protein A0A087WY61 NUMA1): 0.1401 | F6 log2 (H4K5me2/H4K5) (protein A0A087WY61 NUMA1): 0.3015 | E6 log2 (H4K5me2/H4K5) (protein A6NLN1 PTBP1): 0.07938 | F6 log2 (H4K5me2/H4K5) (protein A6NLN1 PTBP1): -0.02591 | E6 log2 (H4K5me2/H4K5) (protein B4DY09 ILF2): 0.08111 | F6 log2 (H4K5me2/H4K5) (protein B4DY09 ILF2): 0.1752 | E6 log2 (H4K5me2/H4K5) (protein B5MCF9 PES1): 0.1415 | F6 log2 (H4K5me2/H4K5) (protein B5MCF9 PES1): 0.1164 | E6 log2 (H4K5me2/H4K5) (protein E7ETZ4 BZW2): 0.1449 | F6 log2 (H4K5me2/H4K5) (protein E7ETZ4 BZW2): -0.03577 | E6 log2 (H4K5me2/H4K5) (protein E9PKG1 PRMT1): 0.1534 | F6 log2 (H4K5me2/H4K5) (protein E9PKG1 PRMT1): 0.23 | E6 log2 (H4K5me2/H4K5) (protein H7C3T4 PRDX4): 0.1102 | F6 log2 (H4K5me2/H4K5) (protein H7C3T4 PRDX4): 0.1589 | E6 log2 (H4K5me2/H4K5) (protein J3QR09 RPL19): 0.1467 | F6 log2 (H4K5me2/H4K5) (protein J3QR09 RPL19): -0.9956 | E6 log2 (H4K5me2/H4K5) (protein M0R3F6 SUGP2): 0.09539 | F6 log2 (H4K5me2/H4K5) (protein M0R3F6 SUGP2): 0.1115 | E6 log2 (H4K5me2/H4K5) (protein O00567 NOP56): 0.1426 | F6 log2 (H4K5me2/H4K5) (protein O00567 NOP56): -0.1862 | E6 log2 (H4K5me2/H4K5) (protein O14654 IRS4): 0.1705 | F6 log2 (H4K5me2/H4K5) (protein O14654 IRS4): -0.09217 | E6 log2 (H4K5me2/H4K5) (protein O14980 XPO1): 0.1332 | F6 log2 (H4K5me2/H4K5) (protein O14980 XPO1): 0.2789 | E6 log2 (H4K5me2/H4K5) (protein O43663 PRC1): 0.1243 | F6 log2 (H4K5me2/H4K5) (protein O43663 PRC1): 0.05206 | E6 log2 (H4K5me2/H4K5) (protein O43670 ZNF207): 0.07954 | F6 log2 (H4K5me2/H4K5) (protein O43670 ZNF207): 0.2082 | E6 log2 (H4K5me2/H4K5) (protein O60216 RAD21): 0.09859 | F6 log2 (H4K5me2/H4K5) (protein O60216 RAD21): -0.00427 | E6 log2 (H4K5me2/H4K5) (protein O60264 SMARCA5): 0.1187 | F6 log2 (H4K5me2/H4K5) (protein O60264 SMARCA5): 0.0006909 | E6 log2 (H4K5me2/H4K5) (protein O75717 WDHD1): 0.1724 | F6 log2 (H4K5me2/H4K5) (protein O75717 WDHD1): 0.09518 | E6 log2 (H4K5me2/H4K5) (protein O95218 ZRANB2): 0.07138 | F6 log2 (H4K5me2/H4K5) (protein O95218 ZRANB2): 0.02934 | E6 log2 (H4K5me2/H4K5) (protein O95239 KIF4A): 0.09061 | F6 log2 (H4K5me2/H4K5) (protein O95239 KIF4A): 0.09527 | E6 log2 (H4K5me2/H4K5) (protein P04843 RPN1): 0.0606 | F6 log2 (H4K5me2/H4K5) (protein P04843 RPN1): -0.2414 | E6 log2 (H4K5me2/H4K5) (protein P08107 HSPA1A): 0.1665 | F6 log2 (H4K5me2/H4K5) (protein P08107 HSPA1A): 0.1744 | E6 log2 (H4K5me2/H4K5) (protein P11387 TOP1): 0.0619 | F6 log2 (H4K5me2/H4K5) (protein P11387 TOP1): 0.02763 | E6 log2 (H4K5me2/H4K5) (protein P12081 HARS): 0.08516 | F6 log2 (H4K5me2/H4K5) (protein P12081 HARS): -0.01799 | E6 log2 (H4K5me2/H4K5) (protein P13010 XRCC5): 0.1114 | F6 log2 (H4K5me2/H4K5) (protein P13010 XRCC5): 0.1089 | E6 log2 (H4K5me2/H4K5) (protein P17028 ZNF24): 0.05262 | F6 log2 (H4K5me2/H4K5) (protein P17028 ZNF24): 0.1336 | E6 log2 (H4K5me2/H4K5) (protein P22314 UBA1): 0.1022 | F6 log2 (H4K5me2/H4K5) (protein P22314 UBA1): 0.2143 | E6 log2 (H4K5me2/H4K5) (protein P26358 DNMT1): 0.1405 | F6 log2 (H4K5me2/H4K5) (protein P26358 DNMT1): 0.2161 | E6 log2 (H4K5me2/H4K5) (protein P26641 EEF1G): 0.08126 | F6 log2 (H4K5me2/H4K5) (protein P26641 EEF1G): 0.1297 | E6 log2 (H4K5me2/H4K5) (protein P29692 EEF1D): 0.1014 | F6 log2 (H4K5me2/H4K5) (protein P29692 EEF1D): -0.2527 | E6 log2 (H4K5me2/H4K5) (protein P31689 DNAJA1): 0.1011 | F6 log2 (H4K5me2/H4K5) (protein P31689 DNAJA1): 0.04124 | E6 log2 (H4K5me2/H4K5) (protein P46109 CRKL): 0.0665 | F6 log2 (H4K5me2/H4K5) (protein P46109 CRKL): -0.05223 | E6 log2 (H4K5me2/H4K5) (protein P49411 TUFM): 0.1754 | F6 log2 (H4K5me2/H4K5) (protein P49411 TUFM): 0.2878 | E6 log2 (H4K5me2/H4K5) (protein P49792 RANBP2): 0.07412 | F6 log2 (H4K5me2/H4K5) (protein P49792 RANBP2): 0.1736 | E6 log2 (H4K5me2/H4K5) (protein P49915 GMPS): 0.05379 | F6 log2 (H4K5me2/H4K5) (protein P49915 GMPS): 0.04262 | E6 log2 (H4K5me2/H4K5) (protein P51991 HNRNPA3): 0.1036 | F6 log2 (H4K5me2/H4K5) (protein P51991 HNRNPA3): 0.2517 | E6 log2 (H4K5me2/H4K5) (protein P52272 HNRNPM): 0.1368 | F6 log2 (H4K5me2/H4K5) (protein P52272 HNRNPM): 0.1164 | E6 log2 (H4K5me2/H4K5) (protein P52597 HNRNPF): 0.1056 | F6 log2 (H4K5me2/H4K5) (protein P52597 HNRNPF): 0.253 | E6 log2 (H4K5me2/H4K5) (protein P52948 NUP98): 0.08442 | F6 log2 (H4K5me2/H4K5) (protein P52948 NUP98): -0.03692 | E6 log2 (H4K5me2/H4K5) (protein P55072 VCP): 0.1596 | F6 log2 (H4K5me2/H4K5) (protein P55072 VCP): 0.3874 | E6 log2 (H4K5me2/H4K5) (protein P62258 YWHAE): 0.1303 | F6 log2 (H4K5me2/H4K5) (protein P62258 YWHAE): -0.03753 | E6 log2 (H4K5me2/H4K5) (protein P62979 RPS27A): 0.1537 | F6 log2 (H4K5me2/H4K5) (protein P62979 RPS27A): -0.5244 | E6 log2 (H4K5me2/H4K5) (protein P63167 DYNLL1): 0.05641 | F6 log2 (H4K5me2/H4K5) (protein P63167 DYNLL1): 0.2614 | E6 log2 (H4K5me2/H4K5) (protein P67870 CSNK2B): 0.1418 | F6 log2 (H4K5me2/H4K5) (protein P67870 CSNK2B): -0.3988 | E6 log2 (H4K5me2/H4K5) (protein P78347 GTF2I): 0.1733 | F6 log2 (H4K5me2/H4K5) (protein P78347 GTF2I): 0.08348 | E6 log2 (H4K5me2/H4K5) (protein P78371 CCT2): 0.07998 | F6 log2 (H4K5me2/H4K5) (protein P78371 CCT2): 0.282 | E6 log2 (H4K5me2/H4K5) (protein P84103 SRSF3): 0.08043 | F6 log2 (H4K5me2/H4K5) (protein P84103 SRSF3): -0.102 | E6 log2 (H4K5me2/H4K5) (protein P85037 FOXK1): 0.1575 | F6 log2 (H4K5me2/H4K5) (protein P85037 FOXK1): -0.07311 | E6 log2 (H4K5me2/H4K5) (protein Q5SY16 NOL9): 0.1325
